Results on one compound are retold here after patent US8012929B2, “Peptides directed for diagnosis and treatment of amyloid-associated diseases” (Tel Aviv University Future Technology Development L.P., priority 2002, dated 2011).

Like-named read-outs stand apart in the source and are kept apart here. Square brackets hold non-standard residues; d marks the D form. Peptide text beside a SMILES is read from it. Aib = CC(C)(N)C(=O)O

Series [1] in a line: Serum stability, mouse serum (HPLC). The series is classed as in vitro ADME. As to conditions: 37° C., 2 and 5 hours. The text has this: D-Trp-Aib serum stability—Regardless of administration route, all drugs penetrate and distribute in the body via the blood system. This milieu is based not only on cells and buffering compounds, but also on proteins, carbohydrates, lipid-protein micelles, etc. Serum proteins mainly contain carrier proteins, such as albumin, but also contain many enzymes that might treat the drug as a substrate. Thus, the susceptibility of any drug entering this environment should be evaluated. The stability of D-Trp-Aib spiked into serum was evaluated by analysis of intact sample concentrations at different time points. D-Trp-Aib (250 μg/ml PBS) was incubated with mouse (Harlan Biotech, Israel) or human (obtained from Sheba medical center, Tel Hashomer, Israel) sera or PBS (1:1, 37° C.), and aliquots were analyzed by HPLC analysis at times 0, 2 and 5 hrs. The reaction was stopped and precipitation was effected by the addition of acetonitrile (Baker, Phillipsburg N.J.) and 10% TCA. Following centrifugation (10,000 g, 5 min), Supernatant was transferred to HPLC analysis. Mean amounts of D-Trp-Aib (μg)±s.e.m. were calculated by an internal calibration curve. […]

Series [2] in a line: Membrane permeability in Caco-2 cell monolayer. The series is classed as in vitro ADME. The note with it: human, apical to basolateral, read-out: recovery at the experimental end point. On the procedure: Membrane permeability of D-Trp-Aib as studied in Caco-2 cells—The CaCo-2 system is based on the intestinal properties of the Caco-2 cells (ATCC Accession No. HTB-37), which preserved the polarity that is seen in the intestinal wall—an apical brush border that faces the intestinal lumen and a basolateral side that faces the body. After initial culturing (37° C. in an atmosphere of 5% CO2 and 100% humidity; medium: D-glucose DMEM supplemented with 1% Lglutamine, 1% nonessential amino acids, 1% sodium pyruvate, 1% penicillinstreptomycin, and 10% fetal bovine serum), cells were harvested and grown (14 days) on polycarbonate membranes, on which they formed a tight monolayer, (width of one cell, as in the intestine) allowing specific compounds to penetrate. […] D-Trp-Aib membrane permeability of the Caco-2 cell monolayer was assessed at concentrations of 0.2 mM and 1 mM, and compared to the standards propranolol (1 mM/apical buffer-see below) and ^3H-mannitol (5.26 Ci/mmole apical buffer—see below), known to pass via transcellular and paracellular routes, respectively. […] Substance samples and Propranolol standard were analyzed using HPLC. ^3H-Mannitol samples were subjected to analysis by liquid scintillation counting in a Packard TopCount NXT. […]

The target of series [3] is T1, CYP450 1A2 (Homo sapiens, UniProt P05177).
T1 sequence (P05177 1-516): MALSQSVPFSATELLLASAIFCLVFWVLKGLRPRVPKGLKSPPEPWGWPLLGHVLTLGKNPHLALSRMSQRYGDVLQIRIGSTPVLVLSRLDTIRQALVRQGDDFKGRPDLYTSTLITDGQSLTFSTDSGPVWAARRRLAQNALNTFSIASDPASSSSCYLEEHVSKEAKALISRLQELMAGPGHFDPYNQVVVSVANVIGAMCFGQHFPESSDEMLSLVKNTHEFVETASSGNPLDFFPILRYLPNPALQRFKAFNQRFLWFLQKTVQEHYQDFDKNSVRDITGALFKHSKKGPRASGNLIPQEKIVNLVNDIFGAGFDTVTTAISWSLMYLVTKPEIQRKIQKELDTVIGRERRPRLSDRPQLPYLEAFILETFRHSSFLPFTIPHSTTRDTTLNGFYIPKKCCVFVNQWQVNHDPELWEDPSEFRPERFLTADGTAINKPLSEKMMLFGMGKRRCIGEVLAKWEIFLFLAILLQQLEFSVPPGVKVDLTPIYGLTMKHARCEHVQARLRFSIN
Briefly: Human CYP450 screen 1A2. The series is classed as in vitro ADME. The text has this:
For the metabolic stability assay, Human cytochrom P450 (CYP450) screens were used. The cytochrom P450 isoenzymes, which are located in the intestines, liver, lung, kidney and brain, are involved in important drug interactions. Drug metabolism occurs in two phases—Phase I involves oxidation, reduction, and hydrolysis. Phase II involves synthesis and conjugation. The CYP 450 isoenzymes are involved in Phase I oxidative reactions. CYP 450 interactions generally result from one of two processes—Induction, where a substance stimulates the synthesis of the enzyme and metabolic capacity is increased, and inhibition, where competitive binding at an enzyme's binding site(s) occurs. A drug with a high affinity for an enzyme will slow the metabolism of any low affinity drug. CYP 3A3/4 is the most abundant CYP 450 isoenzyme in humans and is responsible for the metabolism of the widest range of drugs/substances. (CYP450) screens used were 1A2, 2C9, 2C19, 2D6 and 3A4.

Series [4] in a line: Acute toxicity in mice, single i.v. dose. The note with it: both sexes, mouse, in vivo, iv. The method, then:
Acute Toxicity in Mice—Single dose LD50 or maximal tolerated dose (MTD) of D-Trp-Aib was evaluated by i.v. administration in mice (Harlan Biotech Israel). The sequential method applied in a stepwise procedure, using a minimum amount of animals. At a preliminary phase, an initial single target dose of 250 mg/kg was administered to a group of one male and one female. Further higher dose levels of 500, 1,000 and 750 mg/kg were administered in view of presence or absence of lethality incidence and/or severe adverse reactions at each applied level. The time intervals between the test groups dosing sessions were at least 24 hours. Following termination of the preliminary phase and based on its findings, a main phase was conducted where 5 males & 5 females were administered the jointly selected dose of 750 mg/kg, the highest dose level that was suspected to produce no mortality.

For the compound `CC(C)(NC(=O)[C@H](N)Cc1c[nH]c2ccccc12)C(=O)O` [D-Trp-Aib] (H-[dW]-[Aib]-OH), in series [1], the “D-Trp-Aib concentration after incubation in serum” value is recorded as “No decrease”. Further, in series [2] (0.2 mM), the recovery at 90 min was 37.9%. In addition, in series [2] (1 mM), the recovery at 90 min, 1 mM turned out to be 19.3%. Also, the “activity in CYP450 screen” value in series [3] is reported as “None of the results met significance criteria”. In addition, the MTD in series [4] was above 750 mg/kg; in series [4] (single dose, i.v., read-out: maximal tolerated dose (MTD)) it was below 1000 mg/kg.
